This note sets out measurements from US20120316157A1, “PLANT DISEASE CONTROLLING COMPOSITION AND METHOD FOR CONTROLLING PLANT DISEASE” (SUMITOMO CHEMICAL COMPANY, LIMITED, priority 2010, published 2012).

Like-named read-outs stand apart in the source and are kept apart here.

The test system of this assay is gray mold fungus (Botrytis cinerea). Kind of assay: Cucumber leaf disk preventive test against gray mold fungus (Test Examples 1, 2 and Reference Example). In kind it is in vivo. The protocol: True leaf of cucumber is punched out with cork borer to 13 mm in diameter to prepare a leaf disk. In 24 well microwell plate that is dispensed with 1 ml 0.8% water agar, the leaf disk is placed such that the upper side of the leaf is in an upward direction. Thereto is added 20 micro liter a testing solution prepared by mixing a dimethyl sulfoxide solution of the present compound (racemate) and a dimethyl sulfoxide solution of ferimzone or oxolinic acid to a predetermined concentration to treat the leaf disk.
After confirming that the testing medical solution is dried, conidium of gray mold fungus (Botrytis cinerea) is suspended into potato dextrose broth (DIFCO) in a density of about 10^5 conidium/mL and is then subjected to a spray inoculation. After leaving to stand the leaf disk in a growth chamber set up at 15° C. for four days, an onset area on the leaf is measured and then calculated an onset area rate (hereinafter, referred to as an onset area rate of treated group).
The same operation is carried out with 20 micro liter water instead of 20 micro liter a testing medicine solution to calculate an onset area rate (hereinafter, referred to an onset area rate of non-treated group).
A preventive value is calculated from the above onset area rate of treated group and the onset area rate of non-treated group by the following equation:
Preventive value(%)=100×(A−B)/A
A: an onset area rate of treated group
B: an onset area rate of non-treated group
The same operations as described in Test Example 1 are carried out with fenamidone, acibenzolar-5-methyl, amisulbrom, dazomet, diclomezine, famoxadone, fenoxanil, probenazole, proquinazid, pyroquilon, quinoxyfen, tricyclazole, isoprothiolane or tiadinil instead of ferimzone or oxolinic acid, so as to calculate respective preventive values.
Also for comparison, the same operations as described in Test Example 1 are carried out with the exception that the testing medicine solution is substituted with a predetermined concentration of each dimethyl sulfoxide solution of the present compound (racemate), fenamidone, acibenzolar-5-methyl, amisulbrom, dazomet, diclomezine, famoxadone, fenoxanil, probenazole, proquinazid, pyroquilon, quinoxyfen, tricyclazole, isoprothiolane, or tiadinil, so as to calculate respective preventive values.
For comparison, the same operations as described in Test Example 1 are carried out with the exception that the testing medicine solution is substituted with a predetermined concentration of each dimethyl sulfoxide solution of ferimzone or oxolinic acid, so as to calculate a preventive value.

[1] abbreviates: heterocyclic compound alone, 0.5 ppm, 15° C., four days.
Setting [2] is: heterocyclic compound alone, 5.0 ppm, 15° C., four days.
[3] abbreviates: Botrytis cinerea, foliar, 96 h, heterocyclic compound alone, 0.5 ppm, 15° C., four days, read-out: preventive value (%).
The mark [4] stands for this setting: Botrytis cinerea, foliar, 96 h, heterocyclic compound alone, 5.0 ppm, 15° C., four days, read-out: preventive value (%).
[5] abbreviates: Botrytis cinerea, foliar, 96 h, read-out: preventive value (%), heterocyclic compound alone, 0.5 ppm, 15° C., four days.
Where [6] appears, read: Botrytis cinerea, foliar, 96 h, read-out: preventive value (%), heterocyclic compound alone, 5.0 ppm, 15° C., four days.

Regarding `CCCOc1nc2ccc(I)cc2c(=O)n1CCC` [proquinazid], the “preventive value (%)” value was found to be 10% under setting [1] and 15% under setting [2].

Take `C=CCOC1=NS(=O)(=O)c2ccccc21` [probenazole]: the pest or weed control at 0.5 ppm under setting [3] came out at 10%. In addition, the pest or weed control at 5 ppm under setting [4] is 25%.

`Cc1c(Br)c2ccc(F)cc2n1S(=O)(=O)c1ncn(S(=O)(=O)N(C)C)n1` [amisulbrom]: the “preventive value (%)” value runs as follows: under setting [1], 10%; under setting [2], 15%.

Turning to `Cc1c(Cl)cc(-c2ccc(=O)[nH]n2)cc1Cl` [diclomezine], under setting [3], the pest or weed control at 0.5 ppm is 10%. For the same compound, the pest or weed control at 5 ppm under setting [4] stood at 15%.

Turning to `Cc1cccc2sc3nncn3c12` [tricyclazole], the pest or weed control at 0.5 ppm under setting [3] was 10%. In addition, under setting [4], the pest or weed control at 5 ppm amounted to 15%.

The compound `CNC(=O)C(OC)c1ccccc1COc1cc(C)ccc1C` (racemic) [the present amide compound] displayed a pest or weed control at 1 ppm (Botrytis cinerea, foliar, 96 h, the present amide compound alone, 1.0 ppm, 15° C., four days) of 46%. The same compound displayed a pest or weed control at 2.5 ppm (Botrytis cinerea, foliar, 96 h, the present amide compound alone, 2.5 ppm, 15° C., four days) of 56%.

For `CSC(=O)c1cccc2nnsc12` [acibenzolar-S-methyl], the “preventive value (%)” value is on record as 15% under setting [1] and 25% under setting [2].

Turning to `Cc1ccc(NC(=O)c2snnc2C)cc1Cl` [tiadinil], the pest or weed control at 0.5 ppm under setting [3] was determined as 10%. Further, under setting [4], the pest or weed control at 5 ppm was 25%.

In the case of `CN1CSC(=S)N(C)C1` [dazomet], the pest or weed control at 0.5 ppm under setting [5] was found to be 10%. Moreover, under setting [6], the pest or weed control at 5 ppm was found to be 20%.

With `C/C(=N/Nc1nc(C)cc(C)n1)c1ccccc1C` [ferimzone], under setting [5], the pest or weed control at 0.5 ppm was determined as 10%. Also, the pest or weed control at 5 ppm under setting [6] worked out at 15%.

In the case of `O=C1CCc2cccc3c2N1CC3` [pyroquilon], the pest or weed control at 0.5 ppm under setting [5] turned out to be 10%. In addition, under setting [6], the pest or weed control at 5 ppm is 15%.

`CC(C)OC(=O)C(C(=O)OC(C)C)=C1SCCS1` [isoprothiolane]: under setting [5], the pest or weed control at 0.5 ppm turned out to be 10%. The pest or weed control at 5 ppm under setting [6] was 15%.

Turning to `CSC1=N[C@@](C)(c2ccccc2)C(=O)N1Nc1ccccc1` [fenamidone], the pest or weed control at 0.5 ppm under setting [3] came to 5%. In addition, the pest or weed control at 5 ppm under setting [4] was determined as 10%.

On to `Fc1ccc(Oc2ccnc3cc(Cl)cc(Cl)c23)cc1` [quinoxyfen], for which, under setting [3], the pest or weed control at 0.5 ppm is 10%. Besides, the pest or weed control at 5 ppm under setting [4] stood at 15%.

Take `CC(Oc1ccc(Cl)cc1Cl)C(=O)NC(C)(C#N)C(C)C` (centres unmarked) [fenoxanil]: the “preventive value (%)” value reads like this: under setting [1], 10%; under setting [2], 15%.

With `C[C@@]1(c2ccc(Oc3ccccc3)cc2)OC(=O)N(Nc2ccccc2)C1=O` (racemic) [famoxadone], the pest or weed control at 0.5 ppm under setting [3] came out at 10%. Moreover, the pest or weed control at 5 ppm under setting [4] came to 15%.
